Target: T1, Human coagulation factor (F)XI (Homo sapiens, UniProt P03951)
T1 construct: purchased Haematologic Technologies Inc. (FXI); Enzyme Research Laboratories (FXIIa) HCXI-150 (FXI); HFXIIa (FXIIa)
Assay: Inhibition of FXIIa mediated activation of FXI (activation of human Factor XI to XIa by human Factor α-XIIa)
Type: biochemical
Settings: human FXI pre-incubated with compound 30 min at 22° C., activation by human FXIIa 60 min, z-GPR-AFC substrate fluorescence, 4 parameter logistic fit; read-out: Inhibition of FXIIa meditated activation of FXI
Description: Inhibition of FXIIa Mediated Activation of FXI
Activation of Human Factor XI to XIa by Human Factor α-XIIa
The assay was performed in 50 mM HEPES, 150 mM NaCl, 5 mM CaCl2, 0.1% PEG-8000, pH 7.4 buffer in black, flat-bottom, polystyrene microplates (Corning, Cat #3573). Serial dilutions (10-point, 3.333-fold) of the test compounds delivered as 10 mM DMSO stocks were prepared in the Labcyte Echo-qualified PP 384 well microplates (Labcyte, Cat #P-05525). Human coagulation factor (F)XI (Haematologic Technologies Inc., Cat #HCXI-150, concentration 46 nM, 19.5 uL) was pre-incubated with 0.5 uL of the test compounds for 30 min at 22° C. The activation was initiated by addition of 10 uL of human coagulation factor (F)XIIa (Enzyme Research Laboratories, Cat #HFXIIa, concentration 30 nM) and the reaction proceeded for 60 min at 22° C., after which it was quenched by addition of a selective inhibitor of FXIIa (Compound 54 in International Patent Publication WO2018093695) concentration 600 uM in DMSO, 1 uL). 10 min after the quench, 29 uL of z-GPR-AFC substrate (Sigma, Cat #C0980-10 MG, concentration 200 uM) was added into each well and the detection reaction proceeded for 60 min at 22° C. Fluorescence at 405/510 nm was measured in end-point mode using an Envision plate-reader (Perkin Elmer). IDBS Activity Base XE (ABase) analysis using 4 parameter logistic fit was performed to determine Minimum, Maximum, EC50, and Slope Factor for each compound.

T1 sequence (P03951 19-625): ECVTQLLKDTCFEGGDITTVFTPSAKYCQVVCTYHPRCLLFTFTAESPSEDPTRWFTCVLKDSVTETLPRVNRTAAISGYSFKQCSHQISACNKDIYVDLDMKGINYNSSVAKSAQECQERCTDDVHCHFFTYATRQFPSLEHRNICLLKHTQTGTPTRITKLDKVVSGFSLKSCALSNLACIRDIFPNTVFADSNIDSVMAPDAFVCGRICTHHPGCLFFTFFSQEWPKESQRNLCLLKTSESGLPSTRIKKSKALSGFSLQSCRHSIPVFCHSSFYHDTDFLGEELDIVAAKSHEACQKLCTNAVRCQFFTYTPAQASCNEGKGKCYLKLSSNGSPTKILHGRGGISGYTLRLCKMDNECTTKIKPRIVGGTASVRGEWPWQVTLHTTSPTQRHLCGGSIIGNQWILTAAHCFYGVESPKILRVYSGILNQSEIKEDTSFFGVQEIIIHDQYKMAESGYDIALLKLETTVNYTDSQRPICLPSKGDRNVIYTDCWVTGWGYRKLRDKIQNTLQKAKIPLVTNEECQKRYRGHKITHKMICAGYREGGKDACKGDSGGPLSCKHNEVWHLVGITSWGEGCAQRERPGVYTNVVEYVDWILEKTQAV

| Structure (SMILES) | EC50 |
| --- | --- |
| O=C(c1cc(C(=O)N2CCCCC2)c2cc(OCCCc3cccnc3)ccc2n1)N1CCC(n2cccn2)CC1 [Example 8, (4-(1H-pyrazol-1-yl)piperidin-1-yl)(4-(piperidine-1-carbon-yl)-6-(3-(pyridin-3-yl)pro-poxy)quinolin-2-yl)methanone] | 0.0188 µM |
| N#Cc1ccc(COc2ccc3nc(C(=O)N4CCC(n5cccn5)CC4)cc(C(=O)N4CCCCC4)c3c2)cc1F [Example 13, 4-(((2-(4-(1H-pyrazol-1-yl)-piperidine-1-carbonyl)-4-(piperidine-1-carbonyl)-quinolin-6-yl)oxy)methyl)-2-fluorobenzonitrile] | 0.02 µM |
| O=C(c1cc(C(=O)N2CCCCC2)c2cc(OCc3cc4ccccn4n3)ccc2n1)N1CCC(n2cccn2)CC1 [Example 22, (4-(1H-pyrazol-1-yl)piperidin-1-yl)(4-(piperidine-1-carbon-yl)-6-(pyrazolo[1,5-a]pyridin-2-ylmethoxy)quinolin-2-yl) methanone] | 0.0446 µM |
| C[C@]1(O)CCN(C(=O)c2cc(C(=O)N3CCCCC3)c3cc(OCc4nc5ccccc5s4)ccc3n2)C1 [Example 61, (S)(6-(benzo[d]thiazol-2-ylmethoxy)-2-(3-hydroxy-3-methylpyrrolidine-1-carbonyl)quinolin-4-yl)-(piperidin-1-yl)methanone] | 0.131 µM |
| CN(C(=O)c1cc(C(=O)N2CCC(n3cccn3)CC2)nc2ccc(OCc3nc4ccccc4s3)cc12)C1CCC1 [Example 55, 2-(4-(1H-pyrazol-1-yl)piperi-dine-1-carbonyl)-6-(benzo[d]-thiazol-2-ylmethoxy)-N-cyclo-butyl-N-methylquinoline-4-carboxamide] | 0.366 µM |
| N#CC1(c2ccccn2)CCN(C(=O)c2cc(C(=O)N3CCCCC3)c3cc(OCc4nc5ccccc5s4)ccc3n2)CC1 [Example 57, 1-(6-(benzo[d]thiazol-2-yl-methoxy)-4-(piperidine-1-carbonyl)quinoline-2-car-bonyl)-4-(pyridin-2-yl)-piperidine-4-carbonitrile] | 0.0218 µM |
| Cn1c(COc2ccc3nc(C(=O)N4CCC(n5cccn5)CC4)cc(C(=O)N4CCCCC4)c3c2)nc2ccccc21 [Example 24, (4-(1H-pyrazol-1-yl)piperidin-1-yl)(6-((1-methyl-1H-benzo-[d]imidazol-2-yl)methoxy)-4-(piperidine-1-carbonyl)-quinolin-2-yl)methanone] | 0.0289 µM |
| O=C1OCc2cc(COc3ccc4nc(C(=O)N5CCC(n6cccn6)CC5)cc(C(=O)N5CCCCC5)c4c3)ccc21 [Example 19, 5-(((2-(4-(1H-pyrazol-1-yl)-piperidine-1-carbonyl)-4-(piperidine-1-carbonyl)-quinolin-6-yl)oxy)methyl)-isobenzofuran-1(3H)-one] | 0.0316 µM |
| O=C(c1cc(C(=O)N2CCCCC2)c2cc(OCc3cn4c(F)cccc4n3)ccc2n1)N1CCC(n2cccn2)CC1 [Example 11, (4-(1H-pyrazol-1-yl)piperidin-1-yl)(6-((5-fluoroimidazo[1,2-a]pyridin-2-yl)methoxy)-4-(piperidine-1-carbonyl)-quinolin-2-yl)methanone] | 0.0351 µM |
| O=C(c1cc(C(=O)N2CCCCC2)c2cc(OCc3nc4ccccc4s3)ccc2n1)N1CCC(n2ccnn2)CC1 [Example 64, (4-(1H-1,2,3-triazol-1-yl)-piperidin-1-yl)(6-(benzo-[d]thiazol-2-ylmethoxy)-4-(piperidine-1-carbonyl)-quinolin-2-yl)methanone] | 0.0421 µM |
| N#CC1(n2cccn2)CCN(C(=O)c2cc(C(=O)N3CCCCC3)c3cc(OCc4ncc(C(F)(F)F)cc4Cl)ccc3n2)CC1 [Example 2, 1-(6-((3-chloro-5-(trifluoro-methyl)pyridin-2-yl)meth-oxy)-4-(piperidine-1-carbon-yl)quinoline-2-carbonyl)-4-(1H-pyrazol-1-yl)piperidine-4-carbonitrile] | 0.0322 µM |
| N#CC1(c2ccccc2)CCN(C(=O)c2cc(C(=O)N3CCCCC3)c3cc(OCc4ccc(C(F)(F)F)cc4)ccc3n2)CC1 [Example 38, 4-phenyl-1-(4-(piperidine-1-carbonyl)-6-((4-(trifluoro-methyl)benzyl)oxy)quin-oline-2-carbonyl)piperidine-4-carbonitrile] | 0.0495 µM |
| NC(=O)C1(c2ccccc2)CCN(C(=O)c2cc(C(=O)N3CCCCC3)c3cc(OCc4nc5ccccc5s4)ccc3n2)CC1 [Example 59, 1-(6-(benzo[d]thiazol-2-yl-methoxy)-4-(piperidine-1-carbonyl)quinoline-2-car-bonyl)-4-phenylpiperidine-4-carboxamide] | 0.06 µM |

Results, then the compound that gave them:

| EC50 | Structure (SMILES) |
| --- | --- |
| 0.0326 µM | O=C(c1cc(C(=O)N2CCCCC2)c2cc(OCc3nc4ccccc4s3)ccc2n1)N1CCC(c2ncc[nH]2)CC1 [Example 74, (4-(1H-imidazol-2-yl)-piperidin-1-yl)(6-(benzo-[d]thiazol-2-ylmethoxy)-4-(piperidine-carbonyl)-quinolin-2-yl)methanone] |
| 0.039 µM | N#Cc1cc(Cl)ccc1COc1ccc2nc(C(=O)N3CCC(C#N)(c4ccccc4)CC3)cc(C(=O)N3CCCCC3)c2c1 [Example 27, 1-(6-((4-chloro-2-cyanobenzyl)oxy)-4-(piperidine-1l-carbonyl)quinoline-2-carbonyl)-4-phenylpiperidine-4-carbonitrile] |
| 0.0283 µM | O=C(c1cc(C(=O)N2CCC(F)CC2)c2cc(OCc3nc4ccccc4s3)ccc2n1)N1CCC(n2cccn2)CC1 [Example 52, (4-(1H-pyrazol-1-yl)piperidin-1-yl)(6-(benzo[d]thiazol-2-ylmethoxy)-4-(4-fluoropiperidine-1-carbonyl)quinolin-2-yl)methanone] |
| 0.0389 µM | N#CC1(c2ccccc2)CCN(C(=O)c2cc(C(=O)N3CCCCC3)c3cc(OCc4ccc(F)cc4[N+](=O)[O-])ccc3n2)CC1 [Example 28, 1-(6-((4-fluoro-2-nitro-benzyl)oxy)-4-(piperidine-1-carbonyl)quinoline-2-carbon-yl)-4-phenylpiperidine-4-carbonitrile] |
| 0.0396 µM | Cc1c(COc2ccc3nc(C(=O)N4CCC(C#N)(c5ccccc5)CC4)cc(C(=O)N(C)C)c3c2)ccc2c1COC2=O [Example 3, 2-(4-cyano-4-phenylpiperidine-1-carbonyl)-N,N-dimethyl-6-((4-methyl-1-oxo-1,3-dihydroisobenzofuran-5-yl)methoxy)quinoline-4-carboxamide] |
| 0.0397 µM | N#CC1(c2ccccc2)CCN(C(=O)c2cc(C(=O)N3CCCCC3)c3cc(OCc4cccc([N+](=O)[O-])c4)ccc3n2)CC1 [Example 29, 1-(6-((3-nitrobenzyl)oxy)-4-(piperidine-1-carbonyl)quin-oline-2-carbonyl)-4-phenyl-piperidine-4-carbonitrile] |
| 0.0405 µM | N#CC1(c2ccccc2)CCN(C(=O)c2cc(C(=O)N3CCCCC3)c3cc(OCc4noc5ccccc45)ccc3n2)CC1 [Example 51, 1-(6-(benzo[d]isoxazol-3-yl-methoxy)-4-(piperidine-1-carbonyl)quinoline-2-carbon-yl)-4-phenylpiperidine-4-carbonitrile] |
| 0.0188 µM | O=C(c1cc(C(=O)N2CCCCC2)c2cc(OCc3nc4ccccc4s3)c(F)cc2n1)N1CCC(n2cccn2)CC1 [Example 75, (4-(1H-pyrazol-1-yl)piperidin-1-yl)(6-(benzo[d]thiazol-2-ylmethoxy)-7-fluoro-4-(piperidine-1-carbonyl)quinolin-2-yl)methanone] |
| 0.0318 µM | COc1ccc(COc2ccc3nc(C(=O)N4CCC(C#N)(c5ccccc5)CC4)cc(C(=O)N4CCCCC4)c3c2)cc1F [Example 39, 1-(6-((3-fluoro-4-methoxy-benzyl)oxy)-4-(piperidine-1-carbonyl)quinoline-2-carbon-yl)-4-phenylpiperidine-4-carbonitrile] |
| 0.0459 µM | O=C(c1cc(C(=O)N2CCCCC2)c2cc(OCc3nc4ccccc4s3)ccc2n1)N1CCC(n2cc(F)cn2)CC1 [Example 69, (6-(benzo[d]thiazol-2-yl-methoxy)-2-(4-(4-fluoro-1H-pyrazol-1-yl)piperi-dine-1-carbonyl)quinolin-4-yl)(piperidin-1-yl) methanone] |
| 0.0508 µM | Cn1ncc2cc(COc3ccc4nc(C(=O)N5CCC(n6cccn6)CC5)cc(C(=O)N5CCCCC5)c4c3)ccc21 [Example 17, (4-(1H-pyrazol-1-yl)piperidin-1-yl)(6-((1-methyl-1H-indazol-5-yl)methoxy)-4-(piperidine-1-carbonyl)quinolin-2-yl) methanone] |
| 0.0331 µM | Cn1c(COc2ccc3nc(C(=O)N4CCC(C#N)(c5ccccc5)CC4)cc(C(=O)N4CCCCC4)c3c2)nc2ccccc21 [Example 50, 1-(6-((1-methyl-1H-benzo[d]-imidazol-2-yl)methoxy)-4-(piperidine-1-carbonyl)quin-oline-2-carbonyl)-4-phenyl-piperidine-4-carbonitrile] |

Reference: patent US12304899B2, “Factor XI activation inhibitors” (Merck Sharp & Dohme LLC, priority 2019, dated 2025)
